The text below walks through data of paper PMC8233378, “Acyclic nucleoside phosphonates with adenine nucleobase inhibit Trypanosoma brucei adenine phosphoribosyltransferase in vitro” (Scientific Reports, 2021).

One data set relates to T. brucei BSF cells. As to the kind of experiment: Cell cycle analysis of treated trypanosomes (microscopy, flow cytometry with propidium iodide). The format is cell-based, Trypanosoma brucei. The source says:
The inhibition of the growth of T. brucei BSF in HMI-11 medium in single micromolar EC50 values (Table 1) was somewhat surprising considering the dispensability of APRT enzymes for these cells. […] To get deeper insights into the in vivo action of ANPs on APRT enzyme we tested their cytotoxicity on wild type cells grown in HMI-11^adenine medium. In this medium, the cells rely on the activity of the APRT enzyme to produce AMP and other […]. […] To corroborate this observation, we also tested cells with induced ectopic expression of V5-tagged APRT1 in both types of media and in the presence of the selected ANPs. […] The changes in the distribution of different cell cycle stages within a population were further assessed by flow cytometry assaying the DNA content by staining the cells with propidium iodide (Fig. 8A).
BFS trypanosomes in log phase were resuspended in HMI-11 medium to a density of 2 × 10^5 cells ml^−1. Test compounds at concentrations ranging from 1 to 16 µM were added to the cell suspension followed by 12 h incubation at 37 °C. The cell cycle analysis was performed as described previously. Briefly, approximately 2 × 10^6 cells were washed with PBS and fixed in 1 ml of 70% methanol in 1 × PBS and stored at 4 °C overnight. Following a PBS wash, samples were incubated with 10 µg/ml propidium iodide and 9.6 µg/ml of RNaseA at 37 °C for 45 min. Samples were analyzed on a FACS Canto II (BD) collecting 10,000 gated events.
Background: In flow cytometry, cells or beads pass a laser one at a time.

Another data set concerns T. brucei BSF427. As to the kind of experiment: Alamar Blue assay, BSF427 cells. The format is cell-based. To be noted: Trypanosoma brucei, read-out: T. brucei BSF EC50. As for the experimental part: The bloodstream form (BSF) T. b. brucei Lister 427 and single marker (SM) strains were cultivated in HMI-11 medium and 10% FBS at 37 °C in a humidified atmosphere at 5% CO2[26]. HMI-11 medium containing dialyzed 10% FBS and only one defined source of the purine base, adenine, was used for selected experiments (50 μM, HMI-11^adenine). The SM cell line constitutively expressing ectopic T7 RNA polymerase and tetracycline repressor was used for the tetracycline-inducible expression of dsRNA and V5-tagged proteins. To generate SKD APRT1 and DKD APRT1/2 RNAi cell lines, the 524 bp and 537 bp fragments of the aprt-I (Tb927.7.1780) and aprt-II (Tb927.7.1790) open reading frames, respectively, were PCR amplified from T. brucei BSF427 genomic DNA with the oligonucleotides (Supplementary File S1). The APRT1 fragment was cloned into the p2T7-TABlue, while the APRT2 fragment was cloned into, into the p2T7-177 plasmid. The p2T7-TABlue plasmid containing the APRT1 fragment was electroporated to SM cells which were subjected to selection with hygromycin (5 µg/ml). Verified SKD APRT1 cell line was then transfected with Not-1 linearized p2T7-177 plasmid containing the APRT2 fragment and the resulting DKD APRT1/2 cell line was selected with phleomycin (2.5 µg/ml). For the inducible expression of V5-tagged APRT1 andAPRT2, the coding sequences of the respective genes were PCR amplified using oligonucleotides listed in Supporting Information S1. The obtained PCR fragments were cloned into the pT7_N-term-V5 vector[6] using BglII or BamHI and XbaI restriction enzymes. Plasmids were then transfected to SM BSF cells. The resulting transfectants were established in medium containing puromycin (0.1 µg/ml). The induction of the dsRNA or tagged proteins was triggered by the addition of 1 µg/ml of tetracycline into the medium.
An Alamar Blue Assay was performed in a 96-well plate format to screen for sensitivity of T. brucei BSF cells to ANPs as previously published. The EC50 values were calculated using non-linear regression in GraphPad Prism 9.
For orientation: Resazurin is reduced to fluorescent resorufin, in cell work by metabolically active cells.

A short description of data set [1]: Cytotoxicity of the prodrug in human cells (CellTiter-Glo 2.0), HeLa S3. The format is cell-based. To be noted: human, HeLa S3 cells; HeLa S3, 10 µM; read-out: Cytotoxicity of prodrug: HeLaS3 viability. How it is done: (§1) Compound cytotoxicity was evaluated in Hela S3 cancer cells and non-tumor human dermal fibroblasts (NHDF). All cell lines were obtained from ATCC (Manassas, VA, USA). The cytotoxicity was assayed using CellTiter-Glo® 2.0 detection reagent (Promega, Madison, USA) according to the manufacturer’s protocol.

A short description of data set [2]: Cytotoxicity of the prodrug in human cells (CellTiter-Glo 2.0), NHDF. In kind it is cell-based. The note with it: human, normal human dermal fibroblasts (NHDF), NHDF. How it is done:
as §1
For orientation: In ATP-based viability assays light output follows the ATP content of the culture.

Data set [3] has as its system Leishmania donovani APRT1. Details: method as in PMID 11900545. To be noted: substrate of Leishmania donovani APRT1; cited from earlier work.
The next data set relates to HeLa S3 cells. The experiment in a line: Cytotoxicity of the prodrug in human cells (CellTiter-Glo 2.0), HeLa S3. To be noted: HeLa S3, 10 µM. In kind it is cell-based. How it is done:
as §1

Data set [4] deals with Normal human dermal fibroblasts (NHDF). The experiment in a line: Cytotoxicity of the prodrug in human cells (CellTiter-Glo 2.0), NHDF. The format is cell-based. The note with it: 10 µM. How it is done: as §1
For data set [5], the target named is recombinant T. brucei APRT1 (Trypanosoma brucei brucei, UniProt Q57V32). The experiment in a line: APRT1 steady-state enzyme kinetics for substrates. To be noted: substrate of T. brucei APRT1. As for the experimental part: To test if the newly synthesized ANPs with an adenine as a nucleobase can inhibit the activity of the APRT1 and APRT2, both enzymes were overexpressed in E. coli. […] First, we monitored the APRT1 enzyme activity by a continuous spectrophotometric assay measuring the conversion of adenine to AMP at 256 nm.
The methodology was adapted from Ref.[6]. Briefly, the enzyme kinetics of APRT1 were measured by a continuous spectrophotometric assay measuring the conversion of adenine to AMP, at 256 nm. The concentration of enzyme in the assay was 140 nM, the concentration of PRib-PP was kept at 1 mM and the adenine concentration varied from 3.75 to 60 μM. The reaction was carried out using a 1.0 cm path length with a UV Visible spectrometer 1601 (Shimadzu) in the reaction buffer (0.1 M Tris, pH 8.4; 0.11 M MgCl2; at 25 °C). The initial velocity (V0 [µM/min]) was calculated using Beer–Lambert law for different concentration of the purine substrate molecules: A = Δε × L × c where A is the measured absorbance, Δε is constant 2100 M^−1 cm^−1 for adenine, c is a concentration of the product formed in one minute (V0) and L is the length of a cuvette. The Km, Vmax and kcat values were calculated using GraphPad Prism 9 according to Michaelis–Menten kinetics. […] The Ki values were calculated using non-linear regression in GraphPad Prism 9.

Substrate in data set [6]: Nc1ncnc2nc[nH]c12
As to the kind of experiment: purified protein, by the assay type. The note with it: other: substrate of T. brucei APRT1; pH 8.4; 25.0 °C.

Where two headings read alike, the source gives them in different places.

Usually EC50 stands for the concentration that produces a half-maximal response. What is called viability is the share of living cells, or the viability signal relative to a control. In the case of `CC(C)OC(=O)[C@H](Cc1ccccc1)NP(=O)(CCSCCn1cnc2c(N)ncnc21)N[C@@H](Cc1ccccc1)C(=O)OC(C)C` [24b, 9-(5-(Bis((S-1-isopropoxycarbonyl-2-phenylethyl)amino)phosphoryl)-3-thiapentyl)adenine], the “direct microscopic observation of exposed T. brucei cells” value in the data set with T. brucei BSF cells was “problems in the cell cycle”. In the data set with T. brucei BSF cells (1 to 16 µM, 12 h, propidium iodide), the “distribution of cell cycle stages by flow cytometry (DNA content)” value is recorded as “increase in the number of cells in G1-phase”. Moreover, the EC50 with T. brucei BSF427 (BSF427, HMI-11^adenine medium (50 μM adenine as sole purine)) turned out to be 6.16 µM; with T. brucei BSF427 (BSF427, HMI-11 medium), 6.36 µM. The viability at 10 µM in data set [1] came to 98%; in [2] it was 89%.

As usually defined, the Km is the concentration of substrate that gives half-maximal velocity. Take `Nc1ncnc2[nH]cnc12` [adenine]: in data set [3], the Kcat was 17.9 s⁻¹ and the Km is 2.3 ± 1.1 µM.

Take `CCOC(=O)[C@H](Cc1ccccc1)NP(=O)(CCN(CCN(CCP(=O)(N[C@@H](Cc1ccccc1)C(=O)OCC)N[C@@H](Cc1ccccc1)C(=O)OCC)CCP(=O)(N[C@@H](Cc1ccccc1)C(=O)OCC)N[C@@H](Cc1ccccc1)C(=O)OCC)CCn1cnc2c(N)ncnc21)N[C@@H](Cc1ccccc1)C(=O)OCC` [compound 28, Hexa-(ethyl L-phenylalanine) prodrug of (2-((2-((2-(adenine-9-yl)ethyl)(2-phosphonoethyl)amino)ethyl)(2-phosphonoethyl)amino)ethyl)phosphonic acid]: in the data set on T. brucei BSF cells, the “direct microscopic observation of exposed T. brucei cells” value is “problems in the cell cycle”. Also, the “Cytotoxicity of prodrug: HeLaS3 viability” value in the data set on HeLa S3 cells is 94%. The “effect on viability of NHDF (in words)” value in [4] was “toxic”. In addition, in data set [4] (NHDF), the “Cytotoxicity of prodrug: NHDF viability” value is 4%.

Take `O=P(O)(O)OC[C@H]1O[C@H](OP(=O)(O)OP(=O)(O)O)[C@H](O)[C@@H]1O` [phosphoribosyl pyrophosphate (PRib-P), 5-phospho-α-D-ribosyl-1-pyrophosphate]: in data set [5], the Kcat was 1.8 s⁻¹ and the Km worked out at 162 ± 21.6 µM. Also, the Km in data set [3] was 25.1 ± 5.9 µM.

B1: recombinant T. brucei APRT1 (Trypanosoma brucei brucei TREU927) (protein)
chain: SLVEVLPNYFTLSKDSPLRKKFEKVYKWYSPAFSPHDVPRFAEVGNITENPEVMRGIRDFFVDRYKNLQQPITHILGFDSRGFLLGPMIAVELNVPFVLIRKANKIAGVIIKSEPYTKEYAAESEECMTVRFGSFDKNSRVVLIDDVIATGGTMLAGVQLVDACGATLVEVAGILGLTFLKGTQPAHTFAGGRYSNVPFVTLVDETVLSDENCGDPLHHKGSRIISCAEAKKLI
By kcat is commonly meant the number of substrate molecules converted per active site and unit of time at saturation. Regarding B1, in [6], the Km is on record as 8.7 ± 1.9 µM and the kcat amounted to 0.82 s⁻¹.
